Measurements reported in patent US11440923B2, “Substituted macrocyclic indole derivatives” (Bayer Aktiengesellschaft, priority 2017, dated 2022).
Read-outs that look alike come from different tables or passages of the source.

Tests used:
MCL-1 = MCL-1 (Homo sapiens (Human), UniProt Q07820, K194A/K197A/R201A); experiment: Protein-protein interaction assay MCL-1/Noxa BH3 peptide (MCL-1 assay, TR-FRET); format: binding; conditions: MCL-1 Assay IC50 (median)
Procedure, shortened: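 Competition TR-FRET with MBP-MCL-1 (aa 173-321) at 1 nM final and biotinylated Noxa BH3 peptide, pH 7 Tris buffer. Compounds pre-incubated 10 min at 22° C., then 1 h at 22° C. and overnight at 4° C. 665/620 nm ratio normalized to DMSO; IC50 from 4-parameter fit.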

SUDHL10 cells = experiment: Induction of caspase-3/7 activity in SUDHL10 cells (Assay 4); format: cell-based; conditions: caspase-3/7 induction, 3 h, read-out: Caspase SUDHL10 EC50 (median)
Procedure, shortened: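 Caspase-3/7 activity measured in DLBCL lines after 3 h compound exposure at 37 °C, following overnight plating; Caspase-Glo 3/7 luminescence read after 1 h at 37 °C. Medium-only background subtracted, values normalized to mean of DMSO-treated cells.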

SUDHL5 cells = experiment: Antiproliferation assay SUDHL5 (Assay 7); format: cell-based; conditions: 72 h, CellTiter-Glo, read-out: Antiproli SUDHL5 IC50 (median)
Procedure, shortened: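 CTG luminescence readout; cells plated, overnight at 37 °C, then 72 h compound treatment. Time-zero plate read in parallel. IC50 from day 0 and DMSO-normalised signal.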

Chain of MCL-1 (Q07820 whole entry, looked up, stated change not applied, the tested form may be a part): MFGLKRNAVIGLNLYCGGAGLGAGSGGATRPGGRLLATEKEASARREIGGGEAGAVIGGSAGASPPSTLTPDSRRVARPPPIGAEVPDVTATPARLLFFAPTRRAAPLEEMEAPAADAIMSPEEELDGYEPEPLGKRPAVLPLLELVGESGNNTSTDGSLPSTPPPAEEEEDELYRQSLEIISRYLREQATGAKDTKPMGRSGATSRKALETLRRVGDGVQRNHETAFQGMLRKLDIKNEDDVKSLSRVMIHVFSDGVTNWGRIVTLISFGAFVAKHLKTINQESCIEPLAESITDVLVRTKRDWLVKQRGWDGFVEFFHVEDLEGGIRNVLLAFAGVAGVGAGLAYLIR

| SMILES | IC50 (MCL-1) [nM] | IC50 (SUDHL5 cells; Homo sapiens, SU-DHL-5, 72 h) [nM] | EC50 (SUDHL10 cells; Homo sapiens, SU-DHL10, 3 h) [nM] | EC50 (SUDHL10 cells) [nM] | IC50 (SUDHL5 cells) [nM] |
| --- | --- | --- | --- | --- | --- |
| CCc1c2c(nn1C)C(CCC1CCOCC1)OCCCCn1c(C(=O)O)c(CCCOc3cccc4cc(F)ccc34)c3ccc(Cl)c-2c31 (single isomer, unassigned; enantiomer 1) [Example 61, 4-chloro-3-ethyl-7-{3-[(6-fluoronaphthalen-1-yl)oxy]propyl}-2-methyl-15-[2-(oxan-4-yl)ethyl]-2,10,11,12,13,15-hexahydropyrazolo[4′,3′:9,10][1,6]oxazacycloundecino[8,7,6-hi]indole-8-carboxylic Acid (Enantiomer 1)] | 0.46 |  |  | 23 | 24 |
| Cc1c2c(nn1C)C(CCN1CCOCC1)OCCCCn1c(C(=O)O)c(CCCOc3cccc4cc(F)ccc34)c3ccc(F)c-2c31 (racemic) [Example 19, (rac)-4-fluoro-7-{3-[(6-fluoronaphthalen-1-yl)oxy]propyl}-2,3-dimethyl-15-[2-(morpholin-4-yl)ethyl]-2,10,11,12,13,15-hexahydropyrazolo[4′,3′:9,10][1,6]oxazacycloundecino[8,7,6-hi]indole-8-carboxylic Acid] | 1.6 | 77 | 79 |  |  |
| CCc1c2c(nn1C)C(CCN1CCOCC1)OCCCCn1c(C(=O)O)c(CCCOc3cccc4cc(F)ccc34)c3ccc(Cl)c-2c31 (racemic) [Example 22, (rac)-4-chloro-3-ethyl-7-{3-[(6-fluoronaphthalen-1-yl)oxy]propyl}-2-methyl-15-[2-(morpholin-4-yl)ethyl]-2,10,11,12,13,15-hexahydropyrazolo[4′,3′:9,10][1,6]oxazacycloundecino[8,7,6-hi]indole-8-carboxylic Acid] | 1.5 | 13 | 20 |  |  |
| CCc1c2c(nn1C)C(CCC1CCOCC1)OCCCCn1c(C(=O)O)c(CCCOc3cccc4cc(F)ccc34)c3ccc(Cl)c-2c31 (single isomer, unassigned; enantiomer 2) [Example 62, (−)-4-chloro-3-ethyl-7-{3-[(6-fluoronaphthalen-1-yl)oxy]propyl}-2-methyl-15-[2-(oxan-4-yl)ethyl]-2,10,11,12,13,15-hexahydropyrazolo[4′,3′:9,10][1,6]oxazacycloundecino[8,7,6-hi]indole-8-carboxylic Acid (Enantiomer 2)] | 120 |  |  | 6900 | 5300 |
| CCc1c2c(nn1C)C(CCOC)OCCCCn1c(C(=O)O)c(CCCOc3cccc4cc(F)ccc34)c3ccc(Cl)c-2c31 (racemic) [Example 41, (rac)-4-chloro-3-ethyl-7-{3-[(6-fluoronaphthalen-1-yl)oxy]propyl}-(15-rac)-(2-methoxyethyl)-2-methyl-2,10,11,12,13,15-hexahydropyrazolo[4′,3′:9,10][1,6]oxazacycloundecino[8,7,6-hi]indole-8-carboxylic Acid] | 0.52 | 160 | 130 |  |  |

Now from value to molecule, other results behind:

| IC50 (MCL-1) [nM] | IC50 (SUDHL5 cells; Homo sapiens, SU-DHL-5, 72 h) [nM] | EC50 (SUDHL10 cells; Homo sapiens, SU-DHL10, 3 h) [nM] | SMILES | EC50 (SUDHL10 cells) [nM] | IC50 (SUDHL5 cells) [nM] |
| --- | --- | --- | --- | --- | --- |
| 0.55 | 95 |  | CCc1c2c(nn1C)C(CCO)OCCCCn1c(C(=O)O)c(CCCOc3cccc4cc(F)ccc34)c3ccc(Cl)c-2c31 (single isomer, unassigned; enantiomer 1) [Example 45, (+)-4-chloro-3-ethyl-7-{3-[(6-fluoronaphthalen-1-yl)oxy]propyl}-15-(2-hydroxyethyl)-2-methyl-2,10,11,12,13,15-hexahydropyrazolo[4′,3′:9,10][1,6]oxazacycloundecino[8,7,6-hi]indole-8-carboxylic Acid (Enantiomer 1)] | 99 |  |
| 2.7 | 5100 | 570 | CCc1c2c(nn1C)C(c1ccccc1)OCCCCn1c(C(=O)O)c(CCCOc3cccc4cc(F)ccc34)c3ccc(Cl)c-2c31 (racemic) [Example 59, (rac)-4-chloro-3-ethyl-7-{3-[(6-fluoronaphthalen-1-yl)oxy]propyl}-2-methyl-(15-rac)-phenyl-2,10,11,12,13,15-hexahydropyrazolo[4′,3′:9,10][1,6]oxazacycloundecino[8,7,6-hi]indole-8-carboxylic Acid] |  |  |
| 1 | 67 | 33 | CCc1c2c(nn1C)C(CCC(C)(C)O)OCCCCn1c(C(=O)O)c(CCCOc3cccc4cc(F)ccc34)c3ccc(Cl)c-2c31 (racemic) [Example 74, (rac)-4-chloro-3-ethyl-7-{3-[(6-fluoronaphthalen-1-yl)oxy]propyl}-(15-rac)-(3-hydroxy-3-methylbutyl)-2-methyl-2,10,11,12,13,15-hexahydropyrazolo[4′,3′:9,10][1,6]oxazacycloundecino[8,7,6-hi]indole-8-carboxylic Acid] |  |  |
| 2.2 | 1500 | 5900 | Cc1c2c(nn1C)C(C)OCCCCn1c(C(=O)O)c(CCCOc3cccc4ccccc34)c3cccc-2c31 (racemic) [Example 1, (rac)-2,3,15-trimethyl-7-[3-(naphthalen-1-yloxy)propyl]-2,10,11,12,13,15-hexahydropyrazolo[4′,3′:9,10][1,6]oxazacycloundecino[8,7,6-hi]indole-8-carboxylic Acid (Mixture of Stereoisomers)] |  |  |
| 75 |  |  | Cc1c2c(nn1C)C(CCO)OCCCCn1c(C(=O)O)c(CCCOc3cccc4ccccc34)c3ccc(Cl)c-2c31 (single isomer, unassigned; enantiomer 2) [Example 32, (−)-4-chloro-15-(2-hydroxyethyl)-2,3-dimethyl-7-{3-[(naphthalen-1-yl)oxy]propyl}-2,10,11,12,13,15-hexahydropyrazolo[4′,3′:9,10][1,6]oxazacycloundecino[8,7,6-hi]indole-8-carboxylic Acid (Enantiomer 2)] | > 33000 | 26000 |
| 0.48 | 510 | 210 | COCCC1OCCCCn2c(C(=O)O)c(CCCOc3cccc4ccccc34)c3ccc(Cl)c(c32)-c2c1nn(C)c2C (racemic) [Example 37, (rac)-4-chloro-(15-rac)-(2-methoxyethyl)-2,3-dimethyl-7-{3-[(naphthalen-1-yl)oxy]propyl}-2,10,11,12,13,15-hexahydropyrazolo[4′,3′:9,10][1,6]oxazacycloundecino[8,7,6-hi]indole-8-carboxylic Acid] |  |  |
| 0.85 | 42 | 21 | CCc1c2c(nn1C)C(CCN1CCOCC1)OCCCCn1c(C(=O)O)c(CCCOc3cccc4cc(F)ccc34)c3ccc(F)c-2c31 (racemic) [Example 49, (rac)-3-Ethyl-4-fluoro-7-{3-[(6-fluoronaphthalen-1-yl)oxy]propyl}-2-methyl-(15-rac)-[2-(morpholin-4-yl)ethyl]-2,10,11,12,13,15-hexahydropyrazolo[4′,3′:9,10][1,6]oxazacycloundecino[8,7,6-hi]indole-8-carboxylic Acid] |  |  |
| 1.3 | 490 | 42 | CCc1c2c(nn1C)C(CCCN1CCOCC1)OCCCCn1c(C(=O)O)c(CCCOc3cccc4cc(F)ccc34)c3ccc(Cl)c-2c31 (racemic) [Example 65, (rac)-4-chloro-3-ethyl-7-{3-[(6-fluoronaphthalen-1-yl)oxy]propyl}-2-methyl-(15-rac)-[3-(morpholin-4-yl)propyl]-2,10,11,12,13,15-hexahydropyrazolo[4′,3′:9,10][1,6]oxazacycloundecino[8,7,6-hi]indole-8-carboxylic Acid] |  |  |
